{"source": "patent US7611848B2", "about": "“Method for selecting allosteric regulators of class III G protein-coupled receptors” (Centre National de la Recherche Scientifique (CNRS), priority 2003, dated 2009)", "key": {"[1]": {"system": "deltaGB2s (truncated GABAB2 (GB2) subunit)", "experiment": "IP production in HEK293 cells transiently expressing deltaGB2s receptor and chimeric G protein Gqi9", "assay_type": "cell-based", "conditions": "deltaGB2s with Gqi9, FIG. 9", "excerpt": "FIG. 9: Graph representing the dose-effect of CGP7930 on the deltaGB2s receptor, in HEK293 cells transiently expressing this receptor, and also the chimeric G protein Gqi9 that allows coupling of this receptor to the phospholipase C activation pathway. The results correspond to the ratio of the production of IP to the radioactivity remaining in the membranes.\nThe protocol described in section A.I. above, concerning the mGlu5 receptor, was applied mutatis mutandis to the mGlu1 and mGlu2 receptors and to the GB2 subunit.\nFor this, GPCRs-III for which positive allosteric modulators have been described were chosen: the mGlu1 receptor (Ro01-6128) (Knoflach et al., 2001), the mGlu2 receptor (LY487379) (Schaffhauser et al., 2003), and the GABAB2 (GB2) subunit of the GABAB receptor (CGP7930) (Urwyler et al., 2001). The receptors truncated with respect to their extracellular and intracellular portions are named, respectively, delta1s, delta2s and deltaGB2s and were expressed transiently in HEK293 cells.\nIn order to allow the delta2s and deltaGB2s receptors to activate the phospholipase C, and therefore to increase the production of inositol phosphates, these two receptors were coexpressed with the chimeric G protein Gqi9 as described above (Gomeza et al., 1996; Franek et al., 1999)."}, "[2]": {"molecular_target": "heterodimeric receptor GABAB (GB1 and GB2 subunits) (Homo sapiens, UniProt O75899)", "conditions": "literature (Urwyler et al., 2001); cited from earlier work"}, "[3]": {"molecular_target": "T1, mGlu5ΔS protein (heptahelical domain of the mGlu5 receptor) (Rattus norvegicus, UniProt P31424)", "T1 construct": "between residue P568, located 11 residues before the first transmembrane domain, and residue L864; signal peptide of the mGlu5 receptor (N); expressed in transfected cells; host or cells: HEK293", "T1 sequence (P31424 568-864, stated change not applied)": "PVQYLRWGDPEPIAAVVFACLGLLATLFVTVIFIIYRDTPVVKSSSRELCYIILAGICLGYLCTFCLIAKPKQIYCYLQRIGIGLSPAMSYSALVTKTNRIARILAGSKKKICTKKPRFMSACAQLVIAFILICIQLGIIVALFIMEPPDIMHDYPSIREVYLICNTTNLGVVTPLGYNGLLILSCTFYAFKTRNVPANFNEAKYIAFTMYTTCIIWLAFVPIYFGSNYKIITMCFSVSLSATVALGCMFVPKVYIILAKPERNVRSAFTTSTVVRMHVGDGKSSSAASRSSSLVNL", "experiment": "IP production in HEK293 cells transiently expressing truncated mGlu5ΔS protein", "assay_type": "cell-based", "excerpt": "(§1) The results correspond to the ratio of the production of IP to the radioactivity remaining in the membranes, and are expressed as percentage baseline production of IP.\n(§2) The results correspond to the ratio of the production of IP to the radioactivity remaining in the membranes.\n(§3) In the context of the invention, the measurement of the level of activity of the GPCR-III-A can be carried out by any conventional method known to those skilled in the art that is suitable for measuring the activity of a GPCR-III. Among these methods, mention may be made, by way of example, of measurement of the level of production of inositol phosphates (IPs; see Experimental Section, below; Berridge, 1983; Brandish et al., 2003), measurement of […] (Milligan, 2003), measurement of intracellular calcium signals using fluorescent markers such as Fluo3 or Fluo4, and measurement of cAMP production, the latter two methods being conventional and well known to those skilled in the art.\nThe portion of the cDNA of the mGlu5 receptor encoding its heptahelical domain between residue P568, located 11 residues before the first transmembrane domain, and residue L864, located 37 residues after the 7th transmembrane domain, was amplified by PCR (primers SEQ ID No.1 and SEQ ID No.2), including, respectively, the restriction sites of the Mlu-I and Xba-I enzymes at the 5′ and 3′ ends (FIG. 2). The PCR product thus obtained was digested with the Mlu-I and Xba-I enzymes, subcloned into the vector pRK5-NHA (FIG. 2), and digested with the same enzymes. The plasmid pRK5-NHA was obtained from the plasmid pRKG5a-NHA (Ango et al., 1999), by replacing the sequence encoding the mGlu5 receptor, from the end of the HA tag to the XbaI restriction site, with an MluI restriction site."}, "wild-type mGlu5 receptor": {"molecular_target": "T2, wild-type mGlu5 receptor (Rattus norvegicus, UniProt P31424)", "T2 construct": "expressed in transfected cells; host or cells: HEK293", "T2 sequence (P31424 21-1171 isoform P31424-2 limits assumed)": "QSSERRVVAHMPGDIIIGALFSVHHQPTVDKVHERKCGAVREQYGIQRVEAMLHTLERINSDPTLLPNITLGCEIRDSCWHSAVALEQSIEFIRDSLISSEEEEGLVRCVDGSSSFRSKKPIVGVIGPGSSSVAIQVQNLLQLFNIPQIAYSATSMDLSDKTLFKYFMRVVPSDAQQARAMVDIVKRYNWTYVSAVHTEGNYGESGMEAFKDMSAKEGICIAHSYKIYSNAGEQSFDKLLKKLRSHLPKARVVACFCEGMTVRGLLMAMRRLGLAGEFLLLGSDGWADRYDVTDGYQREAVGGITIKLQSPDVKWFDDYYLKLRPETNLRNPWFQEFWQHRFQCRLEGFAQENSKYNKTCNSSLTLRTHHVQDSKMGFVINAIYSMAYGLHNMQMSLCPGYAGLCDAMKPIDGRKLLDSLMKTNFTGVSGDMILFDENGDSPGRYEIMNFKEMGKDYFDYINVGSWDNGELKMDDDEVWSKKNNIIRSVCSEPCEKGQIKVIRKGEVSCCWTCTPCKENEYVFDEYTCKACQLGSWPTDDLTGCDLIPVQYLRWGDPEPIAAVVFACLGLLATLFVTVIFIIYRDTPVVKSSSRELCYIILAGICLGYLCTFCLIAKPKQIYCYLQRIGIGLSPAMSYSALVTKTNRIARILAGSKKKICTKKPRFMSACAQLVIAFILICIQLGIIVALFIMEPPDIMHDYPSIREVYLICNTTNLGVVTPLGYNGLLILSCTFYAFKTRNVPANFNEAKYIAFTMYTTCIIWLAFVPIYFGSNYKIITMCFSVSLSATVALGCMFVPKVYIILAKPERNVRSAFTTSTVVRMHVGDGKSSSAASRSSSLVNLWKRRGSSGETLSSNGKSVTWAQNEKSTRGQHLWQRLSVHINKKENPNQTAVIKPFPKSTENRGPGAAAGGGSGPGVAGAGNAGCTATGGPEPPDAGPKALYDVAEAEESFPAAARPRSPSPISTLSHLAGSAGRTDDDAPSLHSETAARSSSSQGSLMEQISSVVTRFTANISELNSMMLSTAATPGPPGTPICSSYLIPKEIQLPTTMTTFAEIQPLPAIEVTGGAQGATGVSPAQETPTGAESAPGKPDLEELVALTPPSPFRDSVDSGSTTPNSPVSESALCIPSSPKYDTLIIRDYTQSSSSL", "experiment": "IP production in HEK293 cells transiently expressing wild-type mGlu5 receptor", "assay_type": "cell-based", "excerpt": "as §2, §1, §3\nDFB has recently been described as a positive allosteric regulator of the mGlu5 receptor (Williams et al., 2002). In order to test its effect on the mGlu5ΔS protein, DFB was synthesized by F. Acher (UMR University R. Descartes, rue des Saints Peres, Paris 5).\nThe data correspond to the mean±standard deviation of the mean of (n) experiments."}, "mGlu2 receptor": {"molecular_target": "mGlu2 receptor (Homo sapiens, UniProt Q14416)", "sequence (Q14416 19-872)": "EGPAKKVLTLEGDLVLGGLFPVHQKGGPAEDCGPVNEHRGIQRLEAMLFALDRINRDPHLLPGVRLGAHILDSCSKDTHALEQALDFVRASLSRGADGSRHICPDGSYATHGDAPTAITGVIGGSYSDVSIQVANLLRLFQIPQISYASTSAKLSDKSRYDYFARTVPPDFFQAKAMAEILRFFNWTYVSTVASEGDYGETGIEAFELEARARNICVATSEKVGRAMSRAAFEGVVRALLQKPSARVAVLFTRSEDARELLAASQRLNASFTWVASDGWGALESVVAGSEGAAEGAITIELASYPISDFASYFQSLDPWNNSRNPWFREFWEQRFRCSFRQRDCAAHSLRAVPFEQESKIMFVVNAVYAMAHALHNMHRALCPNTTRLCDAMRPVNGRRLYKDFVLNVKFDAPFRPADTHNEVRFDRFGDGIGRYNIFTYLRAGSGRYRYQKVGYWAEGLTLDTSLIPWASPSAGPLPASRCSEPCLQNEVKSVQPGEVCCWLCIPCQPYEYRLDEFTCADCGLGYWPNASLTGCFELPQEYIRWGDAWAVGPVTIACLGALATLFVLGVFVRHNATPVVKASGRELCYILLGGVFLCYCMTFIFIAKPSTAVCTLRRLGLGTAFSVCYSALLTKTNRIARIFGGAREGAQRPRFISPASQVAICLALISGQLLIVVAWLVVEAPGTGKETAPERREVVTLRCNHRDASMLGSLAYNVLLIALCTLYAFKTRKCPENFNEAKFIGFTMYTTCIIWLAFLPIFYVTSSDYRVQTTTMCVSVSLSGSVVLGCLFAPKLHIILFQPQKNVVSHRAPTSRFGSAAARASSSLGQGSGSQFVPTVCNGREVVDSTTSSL", "conditions": "literature; cited from earlier work"}, "mGlu1 receptor": {"molecular_target": "mGlu1 receptor (Rattus norvegicus, UniProt P23385)", "sequence (P23385 19-1199)": "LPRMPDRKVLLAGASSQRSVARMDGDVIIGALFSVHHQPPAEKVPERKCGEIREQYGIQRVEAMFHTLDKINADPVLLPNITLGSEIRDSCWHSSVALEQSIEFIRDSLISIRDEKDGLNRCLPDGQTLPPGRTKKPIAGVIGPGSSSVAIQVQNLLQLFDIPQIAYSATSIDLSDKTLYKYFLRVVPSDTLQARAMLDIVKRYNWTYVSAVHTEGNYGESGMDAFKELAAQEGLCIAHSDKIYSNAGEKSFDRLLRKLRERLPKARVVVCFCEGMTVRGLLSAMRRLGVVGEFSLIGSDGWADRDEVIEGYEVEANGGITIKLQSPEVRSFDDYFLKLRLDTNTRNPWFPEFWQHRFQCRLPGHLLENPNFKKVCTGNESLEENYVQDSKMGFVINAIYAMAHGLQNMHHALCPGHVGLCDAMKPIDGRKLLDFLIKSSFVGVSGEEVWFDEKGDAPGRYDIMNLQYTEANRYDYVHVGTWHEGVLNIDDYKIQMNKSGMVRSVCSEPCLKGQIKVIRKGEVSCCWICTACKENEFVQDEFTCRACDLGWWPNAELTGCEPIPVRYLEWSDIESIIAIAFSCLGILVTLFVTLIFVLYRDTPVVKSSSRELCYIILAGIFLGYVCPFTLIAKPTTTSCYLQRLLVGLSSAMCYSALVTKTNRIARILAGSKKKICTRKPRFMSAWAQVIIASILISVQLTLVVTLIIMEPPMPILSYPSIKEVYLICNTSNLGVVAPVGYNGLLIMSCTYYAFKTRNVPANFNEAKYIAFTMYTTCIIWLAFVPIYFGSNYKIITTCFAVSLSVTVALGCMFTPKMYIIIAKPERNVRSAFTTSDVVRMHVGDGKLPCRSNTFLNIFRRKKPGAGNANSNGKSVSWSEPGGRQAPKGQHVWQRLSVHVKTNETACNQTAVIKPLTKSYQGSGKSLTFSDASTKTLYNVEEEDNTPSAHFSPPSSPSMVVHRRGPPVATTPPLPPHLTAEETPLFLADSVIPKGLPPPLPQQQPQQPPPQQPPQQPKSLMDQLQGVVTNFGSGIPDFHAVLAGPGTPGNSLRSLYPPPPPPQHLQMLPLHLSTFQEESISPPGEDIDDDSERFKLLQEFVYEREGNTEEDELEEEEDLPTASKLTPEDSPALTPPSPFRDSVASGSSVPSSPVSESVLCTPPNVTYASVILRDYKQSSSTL", "conditions": "literature; cited from earlier work"}}, "data": [{"molecule": "CC(C)(CO)Cc1cc(C(C)(C)C)c(O)c(C(C)(C)C)c1", "note": "[CGP7930, 2,6-Di-tert.-butyl-4-4-(3-hydroxy-2,2-dimethyl-propyl)-phenol]", "values": [{"measurement": "stimulation of truncated construct (IP production)", "setting": "[1]", "value": "strongly stimulates"}, {"measurement": "agonist activity on heterodimeric GABAB receptor", "setting": "[2]", "value": "weak agonist activity"}]}, {"molecule": "Fc1cccc(/C=N/N=C/c2cccc(F)c2)c1", "note": "[DFB]", "values": [{"measurement": "effect on IP production of compound alone (agonist behaviour)", "setting": "[3]; cells expressing mGlu5ΔS", "value": "stimulated IP production"}, {"measurement": "EC50", "setting": "[3]; compound alone on mGlu5ΔS, n=3, read-out: EC50 for stimulation of IP production", "value": "8 ± 3", "unit": "µM"}, {"measurement": "activation of the wild-type mGlu5 receptor by compound alone", "setting": "wild-type mGlu5 receptor; glutamate kept as low as possible by coexpression of EAAC1 and addition of GPT with pyruvate (2 mM)", "value": "did not significantly activate"}, {"measurement": "EC50", "setting": "wild-type mGlu5 receptor; in the presence of a low concentration of agonist, read-out: EC50 for dose-dependent increase of IP production", "value": "1.81 ± 1.04", "unit": "µM"}]}, {"molecule": "COc1ccccc1Oc1ccc(N(Cc2cccnc2)S(=O)(=O)CC(F)(F)F)cc1", "note": "[LY487379]", "values": [{"measurement": "agonist effect when applied alone", "setting": "mGlu2 receptor", "value": "no agonist effect"}, {"measurement": "potentiation of the effect of agonists", "setting": "mGlu2 receptor", "value": "potentiate the effect of agonists"}]}, {"molecule": "Cc1cccc(C#Cc2ccccc2)n1", "note": "[MPEP, 2-Methyl-6-(phenylethynyl)pyridine]", "values": [{"measurement": "inhibition of the effect of DFB", "setting": "[3]; mGlu5ΔS cells treated with 300 μM of DFB (FIG. 6B)", "value": "inhibited"}, {"measurement": "inhibition of the effect of DFB", "setting": "wild-type mGlu5 receptor; wild-type receptor, data not shown", "value": "inhibited"}]}, {"molecule": "CCOC(=O)NC(=O)C(c1ccccc1)c1ccccc1", "note": "[Ro01-6128]", "values": [{"measurement": "agonist effect when applied alone", "setting": "mGlu1 receptor", "value": "no agonist effect"}, {"measurement": "potentiation of the effect of agonists", "setting": "mGlu1 receptor", "value": "potentiate the effect of agonists"}]}, {"molecule": "glutamate", "values": [{"measurement": "effect of glutamate on IP production", "setting": "wild-type mGlu5 receptor; 100 μM glutamate (FIG. 3), wild-type mGlu5", "value": "stimulated IP production"}]}]}
